How the values were obtained:
Artemia salina = Artemia salina bioassay (brine shrimp lethality bioassay); conditions: for cytotoxic effects in the A. Salina test: 31.25–500 μg/mL
Description: This test was carried out with a slight modification, as described by Amaral et al.. Briefly, shrimp cysts were incubated in a small aquarium containing a brine solution (50 mg of cysts and 300 mL of brine) for 48 h with direct lighting. […] […] In the negative (NC) and positive (PC) control groups, saline solution and potassium dichromate (K2Cr2O7) were added, respectively. The concentration range used in the case of the PC group was 31.25 to 500 μg/mL.

[1] = Hemolytic activity in mice erythrocytes; format: cell-based, Mus musculus; conditions: male, Swiss albino, mouse, 37°C, 2 h; for hemolysis at 2 h, 31.25 μg/mL: pH 7.4, 31.25 μg/mL; for hemolysis at 2 h, 62.5 μg/mL: pH 7.4, 62.5 μg/mL; for hemolysis at 2 h, 250 μg/mL: pH 7.4, 250 μg/mL; for hemolysis at 2 h, 500 μg/mL: pH 7.4, 500 μg/mL
Description: (§1) This test was performed on adult Swiss albino mouse (Mus musculus) erythrocytes. The mouse was collected from the Central Animal House of the Federal University of Piaui, Brazil. It was allowed free access to standard food and water ad libitum and was kept under controlled lighting (12 h dark/light cycles) at 24 ± 2°C. Blood was collected from the retro-orbital plexus of the mouse (male, 24 gm body weight). Hemolytic activity in mouse erythrocytes was performed, according to Jamialahmadi et al..

mouse erythrocytes = test: Hemolytic activity in mice erythrocytes; format: cell-based; conditions: for cytotoxic effects in the hemolysis test: 31.25–500 μg/mL
Description: as §1

[2] = tested on: S. cerevisiae EG103 (SODWT); test: S. cerevisiae central disc test, oxidative damage, strain SODWT; format: cell-based, Saccharomyces cerevisiae
From the text: (§2) The central disc test was done according to the method presented by Islam et al.. Superoxide dismutase (CuZnSOD-Sod1) is a cytosolic enzyme that is faulty in strain EG118, whereas mitochondrial SOD is faulty in strain EG110 (MnSOD-Sod2). The strain EG133 has both Sod1 and Sod2 defects, while EG223 has a cytosolic catalase deficiency (Cat1). While EG103 is a competent strain that is identical to the wild-type (SODWT), EG is a dual isogenic strain for the Sod1 and Cat1 genes.

[3] = tested on: S. cerevisiae EG118 (Sod1∆); test: S. cerevisiae central disc test, oxidative damage, strain Sod1∆; format: cell-based, Saccharomyces cerevisiae
From the text: as §2

[4] = tested on: S. cerevisiae EG110 (Sod2∆); test: S. cerevisiae central disc test, oxidative damage, strain Sod2∆; format: cell-based, Saccharomyces cerevisiae
From the text: as §2

[5] = tested on: S. cerevisiae EG133 (Sod1∆Sod2∆); test: S. cerevisiae central disc test, oxidative damage, strain Sod1∆Sod2∆; format: cell-based, Saccharomyces cerevisiae
From the text: as §2

[6] = tested on: S. cerevisiae EG223 (Cat1∆); test: S. cerevisiae central disc test, oxidative damage, strain Cat1∆; format: cell-based, Saccharomyces cerevisiae
From the text: as §2

[7] = tested on: S. cerevisiae EG (Sod1∆Cat1∆); test: S. cerevisiae central disc test, oxidative damage, strain Sod1∆Cat1∆; format: cell-based, Saccharomyces cerevisiae
From the text: as §2

[8] = tested on: S. cerevisiae strains (SODWT, Sod1Δ, Sod2Δ, Cat1Δ, Sod1/Sod2Δ, Cat1Δ/Sod1Δ); test: In vivo antioxidant (S. cerevisiae) test, all strains tested; format: cell-based, Saccharomyces cerevisiae; conditions: for percentage modulation of oxidative damage caused by the stressor H2O2: all strains and concentrations tested; for induction of oxidative damage: any concentration, any of the tested S. cerevisiae strains
From the text: as §2

## CC(C)CCCC(C)CCO (stereo not drawn) [3,7-Dimethyl-1-octanol, 3,7-dimethyl-1-octanol]
Artemia salina
  cytotoxic effects in the A. Salina test: did not exhibit significant cytotoxic effects
Artemia salina; 48 h of exposure
  concentration from which toxicity increased in a dose-dependent manner: 125 µg/mL
[1]; mouse erythrocyte suspension
  hemolysis at 2 h, 31.25 μg/mL: 3.66 ± 0.64%
  hemolysis at 2 h, 62.5 μg/mL: 4.53 ± 0.06%
  hemolysis at 2 h, 250 μg/mL: 5.64 ± 0.74%
  hemolysis at 2 h, 500 μg/mL: 5.66 ± 0.56%
[1]; pH 7.4, 125 μg/mL
  hemolysis at 2 h, 125 μg/mL: 5.33 ± 0.75%
Mouse erythrocytes
  cytotoxic effects in the hemolysis test: did not exhibit significant cytotoxic effects
[2]; 0.9 μg/mL
  oxidative damage: 1.50 ± 0.70
[2]; 1.8 μg/mL
  oxidative damage: 1.50 ± 0.70
[2]; 7.2 μg/mL
  oxidative damage: 2.50 ± 0.70
[2]; 14.4 μg/mL
  oxidative damage: 2.00 ± 1.41
[2]; 32 μg/mL
  oxidative damage: 2.00 ± 0.00
[2]; 64 μg/mL
  oxidative damage: 1.50 ± 0.70
[2]; 128 μg/mL
  oxidative damage: 1.00 ± 1.41
[2]; 3.6 mg/mL
  oxidative damage: 2.00 ± 0.00
[2]; 256 mg/mL
  oxidative damage: 0.50 ± 0.70
[2]; 500 mg/mL
  oxidative damage: 2.50 ± 0.70
[3]; 0.9 μg/mL
  oxidative damage: 0.50 ± 0.70
[3]; 1.8 μg/mL
  oxidative damage: 0.00 ± 0.00
[3]; 7.2 μg/mL
  oxidative damage: 1.00 ± 0.00
[3]; 14.4 μg/mL
  oxidative damage: 1.00 ± 1.41
[3]; 32 μg/mL
  oxidative damage: 2.50 ± 0.70
[3]; 64 μg/mL
  oxidative damage: 3.00 ± 0.00
[3]; 128 μg/mL
  oxidative damage: 1.50 ± 0.70
[3]; 3.6 mg/mL
  oxidative damage: 1.50 ± 0.70
[3]; 256 mg/mL
  oxidative damage: 2.50 ± 0.70
[3]; 500 mg/mL
  oxidative damage: 3.00 ± 0.00
[4]; 0.9 μg/mL
  oxidative damage: 1.50 ± 0.70
[4]; 1.8 μg/mL
  oxidative damage: 2.00 ± 0.00
[4]; 7.2 μg/mL
  oxidative damage: 2.50 ± 0.70
[4]; 14.4 μg/mL
  oxidative damage: 1.50 ± 0.70
[4]; 32 μg/mL
  oxidative damage: 3.00 ± 0.00
[4]; 64 μg/mL
  oxidative damage: 1.00 ± 0.00
[4]; 128 μg/mL
  oxidative damage: 1.50 ± 0.70
[4]; 3.6 mg/mL
  oxidative damage: 2.50 ± 0.70
[4]; 256 mg/mL
  oxidative damage: 1.00 ± 1.41
[4]; 500 mg/mL
  oxidative damage: 2.50 ± 0.70
[5]; 0.9 μg/mL
  oxidative damage: 1.50 ± 0.70
[5]; 1.8 μg/mL
  oxidative damage: 1.00 ± 1.41
[5]; 7.2 μg/mL
  oxidative damage: 2.50 ± 0.70
[5]; 14.4 μg/mL
  oxidative damage: 2.00 ± 0.00
[5]; 32 μg/mL
  oxidative damage: 2.50 ± 0.70
[5]; 64 μg/mL
  oxidative damage: 3.50 ± 0.70
[5]; 128 μg/mL
  oxidative damage: 3.50 ± 0.70
[5]; 3.6 mg/mL
  oxidative damage: 2.00 ± 1.41
[5]; 256 mg/mL
  oxidative damage: 3.00 ± 1.41
[5]; 500 mg/mL
  oxidative damage: 2.50 ± 0.70
[6]; 0.9 μg/mL
  oxidative damage: 2.50 ± 0.70
[6]; 1.8 μg/mL
  oxidative damage: 3.50 ± 0.70
[6]; 7.2 μg/mL
  oxidative damage: 4.00 ± 0.00
[6]; 14.4 μg/mL
  oxidative damage: 3.50 ± 0.70
[6]; 32 μg/mL
  oxidative damage: 3.50 ± 2.12
[6]; 64 μg/mL
  oxidative damage: 3.50 ± 0.70
[6]; 128 μg/mL
  oxidative damage: 3.50 ± 2.12
[6]; 3.6 mg/mL
  oxidative damage: 2.50 ± 0.70
[6]; 256 mg/mL
  oxidative damage: 2.50 ± 2.12
[6]; 500 mg/mL
  oxidative damage: 3.00 ± 1.41
[7]; 0.9 μg/mL
  oxidative damage: 2.50 ± 0.70
[7]; 1.8 μg/mL
  oxidative damage: 3.00 ± 0.00
[7]; 7.2 μg/mL
  oxidative damage: 3.00 ± 1.41
[7]; 14.4 μg/mL
  oxidative damage: 2.00 ± 2.82
[7]; 32 μg/mL
  oxidative damage: 3.50 ± 0.70
[7]; 64 μg/mL
  oxidative damage: 3.00 ± 1.41
[7]; 128 μg/mL
  oxidative damage: 4.00 ± 1.41
[7]; 256 μg/mL
  oxidative damage: 3.00 ± 0.00
[7]; 3.6 mg/mL
  oxidative damage: 4.00 ± 1.41
[7]; 500 mg/mL
  oxidative damage: 3.50 ± 0.70
[8]
  percentage modulation of oxidative damage caused by the stressor H2O2: more than 60%
  induction of oxidative damage: did not induce oxidative damage

## CC(C)=CCC/C(C)=C\CO [Nerol, cis-3,7-dimethyl-2,6-octadien-1]
Artemia salina; 62.5 μg/mL, 48 h of exposure
  Artemia Salina mortality: 100%
Artemia salina
  cytotoxic effects in the A. Salina test: significant cytotoxic effects
[1]; mouse erythrocyte suspension
  hemolysis at 2 h, 31.25 μg/mL: 2.67 ± 0.35%
  hemolysis at 2 h, 62.5 μg/mL: 4.49 ± 0.26%
  hemolysis at 2 h, 250 μg/mL: 6.54 ± 1.78%
  hemolysis at 2 h, 500 μg/mL: 39.1%
[1]; mouse erythrocyte suspension, pH 7.4, 125 μg/mL
  hemolysis at 2 h, 125 μg/mL: 5.12 ± 1.05%
Mouse erythrocytes; 500 μg/mL, 37°C, 2 h
  Hemolysis (%): 34.95 ± 4.74^∗ %
Mouse erythrocytes
  cytotoxic effects in the hemolysis test: significant cytotoxic effects
[2]; 0.9 μg/mL
  oxidative damage: 1.50 ± 0.70
[2]; 1.8 μg/mL
  oxidative damage: 1.50 ± 0.70
[2]; 7.2 μg/mL
  oxidative damage: 2.00 ± 1.41
[2]; 14.4 μg/mL
  oxidative damage: 2.50 ± 0.70
[2]; 32 μg/mL
  oxidative damage: 2.00 ± 1.41
[2]; 64 μg/mL
  oxidative damage: 2.00 ± 1.41
[2]; 128 μg/mL
  oxidative damage: 1.00 ± 0.28
[2]; 3.6 mg/mL
  oxidative damage: 1.00 ± 0.28
[2]; 256 mg/mL
  oxidative damage: 2.00 ± 0.24
[2]; 500 mg/mL
  oxidative damage: 1.00 ± 0.28
[3]; 0.9 μg/mL
  oxidative damage: 1.50 ± 0.70
[3]; 1.8 μg/mL
  oxidative damage: 2.00 ± 1.41
[3]; 7.2 μg/mL
  oxidative damage: 3.00 ± 1.41
[3]; 14.4 μg/mL
  oxidative damage: 2.50 ± 0.70
[3]; 32 μg/mL
  oxidative damage: 3.50 ± 0.70
[3]; 64 μg/mL
  oxidative damage: 1.50 ± 0.70
[3]; 128 μg/mL
  oxidative damage: 2.00 ± 1.41
[3]; 3.6 mg/mL
  oxidative damage: 2.50 ± 0.70
[3]; 256 mg/mL
  oxidative damage: 2.50 ± 0.70
[3]; 500 mg/mL
  oxidative damage: 2.00 ± 0.24
[4]; 0.9 μg/mL
  oxidative damage: 1.00 ± 0.28
[4]; 1.8 μg/mL
  oxidative damage: 3.00 ± 1.41
[4]; 7.2 μg/mL
  oxidative damage: 3.00 ± 1.41
[4]; 14.4 μg/mL
  oxidative damage: 3.00 ± 1.41
[4]; 32 μg/mL
  oxidative damage: 1.50 ± 0.70
[4]; 64 μg/mL
  oxidative damage: 2.50 ± 0.70
[4]; 128 μg/mL
  oxidative damage: 2.50 ± 0.70
[4]; 3.6 mg/mL
  oxidative damage: 2.50 ± 0.70
[4]; 256 mg/mL
  oxidative damage: 2.00 ± 1.41
[4]; 500 mg/mL
  oxidative damage: 2.00 ± 0.24
[5]; 0.9 μg/mL
  oxidative damage: 2.00 ± 1.41
[5]; 1.8 μg/mL
  oxidative damage: 2.50 ± 0.70
[5]; 7.2 μg/mL
  oxidative damage: 3.00 ± 1.41
[5]; 14.4 μg/mL
  oxidative damage: 3.00 ± 0.54
[5]; 32 μg/mL
  oxidative damage: 4.50 ± 0.70
[5]; 64 μg/mL
  oxidative damage: 2.50 ± 0.70
[5]; 128 μg/mL
  oxidative damage: 3.00 ± 1.41
[5]; 3.6 mg/mL
  oxidative damage: 2.50 ± 0.70
[5]; 256 mg/mL
  oxidative damage: 2.50 ± 0.70
[5]; 500 mg/mL
  oxidative damage: 2.50 ± 0.70
[6]; 0.9 μg/mL
  oxidative damage: 1.50 ± 0.70
[6]; 1.8 μg/mL
  oxidative damage: 2.50 ± 0.70
[6]; 7.2 μg/mL
  oxidative damage: 2.50 ± 0.70
[6]; 14.4 μg/mL
  oxidative damage: 3.00 ± 0.54
[6]; 32 μg/mL
  oxidative damage: 3.50 ± 0.70
[6]; 64 μg/mL
  oxidative damage: 3.00 ± 1.41
[6]; 128 μg/mL
  oxidative damage: 3.00 ± 1.41
[6]; 3.6 mg/mL
  oxidative damage: 4.00 ± 1.2
[6]; 256 mg/mL
  oxidative damage: 1.50 ± 0.70
[6]; 500 mg/mL
  oxidative damage: 2.50 ± 0.70
[7]; 0.9 μg/mL
  oxidative damage: 2.50 ± 2.10
[7]; 1.8 μg/mL
  oxidative damage: 2.50 ± 0.70
[7]; 7.2 μg/mL
  oxidative damage: 3.00 ± 1.41
[7]; 14.4 μg/mL
  oxidative damage: 3.00 ± 1.41
[7]; 32 μg/mL
  oxidative damage: 3.50 ± 0.70
[7]; 64 μg/mL
  oxidative damage: 3.00 ± 1.41
[7]; 128 μg/mL
  oxidative damage: 2.50 ± 0.70
[7]; 256 μg/mL
  oxidative damage: 3.00 ± 1.41
[7]; 3.6 mg/mL
  oxidative damage: 3.00 ± 1.41
[7]; 500 mg/mL
  oxidative damage: 2.50 ± 0.70
[8]
  percentage modulation of oxidative damage caused by the stressor H2O2: more than 60%
  induction of oxidative damage: did not induce oxidative damage

From PMC9712021 (Advances in Pharmacological and Pharmaceutical Sciences, 2022)
